From patent US12589090B2, “Compounds and methods for the treatment of degenerative disorders” (Aquilus Pharmaceuticals, Inc., priority 2019, dated 2026)
Entries after “also recorded” stand apart in the source; their conditions may differ.

What was measured:
[1] = test system: TDP-43 overexpressed flies; assay: TDP-43 pupal lethality screen (Example 23); type: in vivo, Drosophila; conditions: larvae raised on 1 microMolar; DMSO control 51%
Protocol: Procedure: UAS TDP-43 male Drosophila flies were crossed with D42-Gal4 female virgins on fly food containing either DMSO or 1% Compound 118 in dimethyl sulfoxide (DMSO). For DMSO controls, the same volume of DMSO as the corresponding Compound 118 concentration was added. Bromophenol blue was added to a final concentration of around 0.02% to ensure homogeneity. Crosses were made on drug food with three female virgins and two males in each vial and were maintained at 25° C. unless noted. The parents were discarded after 5-7 days and then the vials were screened for adult progeny with straight wings from Day 14 to Day 25. All adults were screened for TDP-43 expression by visualizing the YFP tag. Total number of pupae was counted on Day 25. Percent survival was calculated using the formula (total number of straight-winged adults/total number of pupae)×100. All experiments were performed in triplicate. Read-outs include larval turning assay and pupil lethality screen.
Compound 118 (represented as AQU-118) caused a decrease in lethality from 51% (bottom left) to 39% (bottom right). In this screen the number of adult TDP-43 overexpressed flies that emerge from their pupae stage is compared to w1118 controls. Larvae were raised on either DMSO or Compound 118 at 1 microMolar. N=number of pupae counted. Alive=empty pupal cases, adults have emerged. […]

[2] = Dissociation constant; type: physicochemical
[3] = test system: SNL rats; assay: Spinal nerve ligation (SNL) rat model, mechanical allodynia by von Frey paw withdrawal threshold (Example 17); type: in vivo, Sprague Dawley rats; conditions: 160 mg/Kg PO once per day for 5 days, 60 min after dosing, vs. vehicle control, p<0.05
Protocol: A total of 90 male Sprague Dawley rats (200-225 g) from Envigo (Indianapolis, IN) were used in the study. The 90 rats were assembled into four groups that would be orally dosed (PO) with vehicle, Gabapentin and Compound 118 as follows: • Group 1=Sham+Vehicle, n=20 rats • Group 2=SNL+Vehicle, n=40 rats • Group 3=SNL+Compound 118 (160 mg/Kg), n=20 rats • Group 4=SNL+Gabapentin (100 mg/Kg), n=10 rats
Under general anesthesia with continuous inhalation of isoflurane, surgery was performed with aseptic procedures. The skin at the area of the lower lumber and sacral level of the rat was shaved and disinfected with betadine and alcohol. A left longitudinal incision at the level next to the vertebral column was made and the left paraspinal muscles were separated. The transverse process of L6 was removed and nearby connective tissue cleaned to expose L5 and L6 spinal nerves. After the nerves were isolated and clearly visualized, 4-0 silk threads were used to ligate the left L5. The muscles were sutured with 4-0 silk threads and the wound closed by staples. […] Each rat was monitored until awake and moving freely around the recovery chamber. […]
The mechanical allodynia of the rodents were measured by applying von Frey (VF) filaments (Stoelting, Wood Dale, IL) of ascending bending force to the plantar surface of the hind paws, ipsilateral and contralateral to the surgical manipulation. […]

Structure (SMILES): [2H]C([2H])([2H])c1ccc(C#Cc2ccc(S(=O)(=O)N[C@H](Cc3c[nH]c4ccccc34)C(=O)O)s2)cc1 [Compound 118, (R)-3-(1H-Indol-3-yl)-2-[5-(4-trideuteromethyl-phenylethynyl)-thiophene-2-sulfonylamino]-propionic acid-(D3, 98%)]
- lethality (dead pupae) [1]: 39%
- dissociation constant [2]: around 3.4
- mechanical allodynia (ipsilateral paw withdrawal threshold, von Frey) [3]: reduce mechanical allodynia in a statistical manner; also recorded: statistically significant decrease in mechanical allodynia
